Assay results taken from patent US11034685B2, “Aminopyridine derivatives as TAM family kinase inhibitors” (SignalChem Lifesciences Corporation, priority 2013, dated 2021).

Experiments:
Assay type in all cases: biochemical
human Mer (578-872) = target: T1, human Mer (578-872) (Homo sapiens, UniProt Q12866); experiment: Kinase enzymatic activity assay ([33P]-ATP phosphate transfer), Mer; conditions: inhibitory activity on Mer; class symbols
T1 construct: GST (N); made in house; host or cells: Sf9 insect cells (baculovirus)
T1 sequence (Q12866 578-872): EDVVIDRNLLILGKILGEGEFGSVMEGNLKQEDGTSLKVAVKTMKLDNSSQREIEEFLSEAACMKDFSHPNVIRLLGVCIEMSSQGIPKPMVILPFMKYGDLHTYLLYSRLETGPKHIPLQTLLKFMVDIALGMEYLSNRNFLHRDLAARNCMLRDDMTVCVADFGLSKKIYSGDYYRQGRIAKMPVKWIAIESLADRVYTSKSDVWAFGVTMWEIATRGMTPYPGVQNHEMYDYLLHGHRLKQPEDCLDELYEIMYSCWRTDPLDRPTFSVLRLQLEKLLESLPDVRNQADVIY
Method: (§1) Preparation of Active Recombinant Kinase Proteins:
(§2) Recombinant human Tyro3 (455-end, the gene accession number NM_006293), human Axl (473-end, the gene accession number NM_021913) and human Mer (578-872, the gene accession number NM_006343) were independently expressed by baculovirus in Sf9 insect cells using an N-terminal GST tag. The recombinant proteins were stored at −70° C. in a medium containing 50 mM Tris-HCl, pH 7.5, 150 mM NaCl, 10 mM glutathione, 0.1 mM EDTA, 0.25 mM DTT, 0.1 mM PMSF and 25% glycerol. The recombinant proteins were aliquoted into smaller quantities after centrifugation to avoid repeated handling and multiple freeze/thaw cycles for the most favorable performance.
(§3) Preparation of Assay Reagents:
(§4) Kinase Assay Buffer: This buffer solution consisted of the following components: 25 mM MOPS, pH 7.2, 12.5 mM β-glycerol-phosphate, 25 mM MgCl2, 5 mM EGTA, 2 mM EDTA and DTT 0.25 mM which was added prior to use.
(§5) Kinase Dilution Buffer: Kinase Assay Buffer was diluted at a 1:4 ratio (5× dilution) with distilled water.
(§6) [^33P]-ATP assay cocktail: In a designated radioactive working area, a 250 μM [^33P]-ATP assay cocktail was prepared by the addition of the following components: 150 μL of 10 mM ATP stock solution, 100 μL [^33P]-ATP (1 mci/100 μL), 5.75 mL of kinase assay buffer. This solution was stored in 1 mL aliquots at −20 OC.
(§7) ATP stock solution (10 mM): The ATP stock solution was prepared by dissolving 55 mg of ATP in 10 mL of kinase assay buffer. It was stored in 200 μL aliquots at −20° C.
(§8) Active Kinase Stock Solution: The active recombinant kinase protein (0.1 μg/μL) was diluted with Kinase Dilution Buffer and the activity was assayed using a serial dilution method. The specific activity is expressed in nmoL/min/mg.
(§9) Substrates: poly(4:1 glu:tyr) is the substrate used for each kinase Tyro3, Axl and Mer: The peptide substrate was dissolved in water to give the final concentration of 1 mg/mL.
(§10) Test compound solution: Test compound was dissolved in DMSO to obtain a 10 mM solution. The assay solution was prepared by adding 5 μL of this solution to […] of 10% DMSO/water to obtain the final concentration of 50 μM.
(§11) The enzymatic activity of all three kinases was determined as follows. Using a 96-well plate, the wells were divided into three categories: Blank wells, […] and Test wells. In Test wells, 5 μL of the test compound solution and 5 μL of the substrate solution were added. In Control wells, 5 μL of 10% DMSO/water and 5 μL of the substrate solution were added. In Blank wells, 10 μL of 10% DMSO/water was added. To each well was added 10 μL of Active Kinase Stock Solution to make up the volume in each well to 20 μL. All test samples, controls and blanks were run in duplicate. The reaction was initiated by the addition of 5 μL of [^33P]-ATP assay cocktail, bringing the final volume up to 25 μL in every well. The mixture was incubated at room temperature for 30 minutes. The reaction was terminated by transferring 10 μL of the reaction mixture into a Millipore MultiScreen filter plate (cat. number MSPHN6B50). The filter plate was washed in a 1% phosphoric acid solution with constant gentle shaking for 15 minutes and this step was repeated once. After the plate was dried in air, scintillation fluid was added to each well and the radioactivity in each well in CPM was counted by a Microbeta TriLux. The corrected CPM in each test well was determined by subtracting the average value of Blank well values. Percentage of inhibition of the kinase enzymatic activity by the test compound was determined using the following formula: […]
(§12) The IC50 values were determined in a similar way following a serial dilution of the test compound. The percentage of inhibition at each concentration was calculated following the above formula. The IC50 was estimated from the curve of % Inhibition against Concentration in log unit using Prism 5, version 5.01.

[1] = target: T2, Recombinant human Tyro3 (455-end) (Homo sapiens, UniProt Q06418); experiment: Kinase enzymatic activity assay ([33P]-ATP phosphate transfer), Tyro3; conditions: inhibitory activity on Tyro3; class symbols
T2 construct: GST (N); made in house; host or cells: Sf9 insect cells (baculovirus)
T2 sequence (Q06418 455-890 limits assumed): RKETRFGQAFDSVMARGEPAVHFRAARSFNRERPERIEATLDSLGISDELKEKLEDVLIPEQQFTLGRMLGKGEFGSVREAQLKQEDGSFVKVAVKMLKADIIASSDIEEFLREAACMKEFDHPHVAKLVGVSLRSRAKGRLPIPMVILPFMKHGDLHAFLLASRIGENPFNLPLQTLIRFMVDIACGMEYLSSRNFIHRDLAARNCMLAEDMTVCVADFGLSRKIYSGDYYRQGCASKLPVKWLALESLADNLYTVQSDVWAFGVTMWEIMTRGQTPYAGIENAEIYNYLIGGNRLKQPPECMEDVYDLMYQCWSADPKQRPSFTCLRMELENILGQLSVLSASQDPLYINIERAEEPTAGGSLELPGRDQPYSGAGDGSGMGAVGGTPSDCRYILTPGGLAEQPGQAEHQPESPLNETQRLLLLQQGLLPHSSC
Method: as §1, §2, §3, §4, §5, §6, §7, §8, §9, §10, §11, §12

human Axl (473-end) = target: T3, human Axl (473-end) (Homo sapiens, UniProt P30530); experiment: Kinase enzymatic activity assay ([33P]-ATP phosphate transfer), Axl; conditions: inhibitory activity on Axl; class symbols
T3 construct: GST (N); made in house; host or cells: Sf9 insect cells (baculovirus)
T3 sequence (P30530 473-894 limits assumed): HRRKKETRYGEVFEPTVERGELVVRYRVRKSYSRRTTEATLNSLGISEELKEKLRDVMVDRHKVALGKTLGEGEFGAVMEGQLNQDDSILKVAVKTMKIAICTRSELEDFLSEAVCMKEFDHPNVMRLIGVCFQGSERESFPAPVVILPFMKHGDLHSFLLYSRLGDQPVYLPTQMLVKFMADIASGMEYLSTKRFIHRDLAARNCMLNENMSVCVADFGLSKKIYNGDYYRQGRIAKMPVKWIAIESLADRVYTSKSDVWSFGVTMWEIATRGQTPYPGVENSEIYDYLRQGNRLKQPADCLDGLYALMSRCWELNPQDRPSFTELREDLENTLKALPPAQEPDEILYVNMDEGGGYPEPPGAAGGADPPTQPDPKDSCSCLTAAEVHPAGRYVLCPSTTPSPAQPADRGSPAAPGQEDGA
Method: as §1, §2, §3, §4, §5, §6, §7, §8, §9, §10, §11, §12

IC50 (human Mer (578-872)) [µM] | IC50 [1] [µM] | IC50 (human Axl (473-end)) [µM] | Structure (SMILES)
< 0.5 | < 0.5 | < 0.5 | CC(=O)N1CCC(n2cc(-c3cnc(N)c(-c4ncc(-c5cccc(Cl)c5)o4)c3)cn2)CC1 [1-(4-(4-(6-amino-5-(5-(3-chlorophenyl)oxazol-2-yl)pyridin-3-yl)-1H-pyrazol-1-yl)piperidin-1-yl)ethanone]
< 0.5 | < 0.5 | < 0.5 | CCN1CCC(n2cc(-c3cnc(N)c(-c4nnc(-c5c(Cl)cccc5Cl)o4)c3)cn2)CC1 [3-(5-(2,6-dichlorophenyl)-1,3,4-oxadiazol-2-yl)-5-(1-(1-ethylpiperidin-4-yl)-1H-pyrazol-4-yl)pyridin-2-amine]
< 0.5 | < 0.5 | 1 to 10 | CCCCCCCCCCCCN1CCC(n2cc(-c3cnc(N)c(-c4nc(-c5c(Cl)cccc5Cl)no4)c3)cn2)CC1 [3-(3-(2,6-dichlorophenyl)-1,2,4-oxadiazol-5-yl)-5-(1-(1-dodecylpiperidin-4-yl)-1H-pyrazol-4-yl)pyridin-2-amine]
< 0.5 | < 0.5 | < 0.5 | CCN1CCC(n2cc(-c3cnc(N)c(-c4ncc(-c5ccccc5)o4)c3)cn2)CC1 [5-(1-(1-ethylpiperidin-4-yl)-1H-pyrazol-4-yl)-3-(5-phenyloxazol-2-yl)pyridin-2-amine]
< 0.5 | < 0.5 | < 0.5 | CCN1CCC(n2cc(-c3cnc(N)c(-c4nc(-c5ccccc5)no4)c3)cn2)CC1 [5-(1-(1-ethylpiperidin-4-yl)-1H-pyrazol-4-yl)-3-(3-phenyl-1,2,4-oxadiazol-5-yl)pyridin-2-amine]
1 to 10 | < 0.5 | 1 to 10 | Nc1ncc(-c2cnn(C3CCCCC3)c2)cc1-c1nc(-c2c(Cl)cccc2Cl)no1 [5-(1-cyclohexyl-1H-pyrazol-4-yl)-3-(3-(2,6-dichlorophenyl)-1,2,4-oxadiazol-5-yl)pyridin-2-amine]

More lines, now with the values behind:

Structure (SMILES) | IC50 (human Mer (578-872)) [µM] | IC50 [1] [µM] | IC50 (human Axl (473-end)) [µM]
Nc1ncc(-c2cnn(C3CCNCC3)c2)cc1-c1nnc(-c2nccs2)o1 [5-(1-(piperidin-4-yl)-1H-pyrazol-4-yl)-3-(5-(thiazol-2-yl)-1,3,4-oxadiazol-2-yl)pyridin-2-amine] | < 0.5 | < 0.5 | < 0.5
Nc1ncc(-c2cnn(C3CCN(C(=O)c4ccccc4)CC3)c2)cc1-c1ncc(-c2cccc(Cl)c2)o1 | 1 to 10 | < 0.5 | < 0.5
Nc1ncc(-c2cnn(C3CCN(C(=O)C4CC4)CC3)c2)cc1-c1ncc(-c2cccc(Cl)c2)o1 [(4-(4-(6-amino-5-(5-(3-chlorophenyl)oxazol-2-yl)pyridin-3-yl)-1H-pyrazol-1-yl)piperidin-1-yl)(cyclopropyl)methanone] | 1 to 10 | 0.5 to 1 | < 0.5
Nc1ncc(-c2cnn(C3CCNCC3)c2)cc1-c1ccc(-c2ccccc2)o1 [3-(5-phenylfuran-2-yl)-5-(1-(piperidin-4-yl)-1H-pyrazol-4-yl)pyridin-2-amine] | 0.5 to 1 | < 0.5 | < 0.5
Nc1ncc(-c2cnn(C3CCCCC3)c2)cc1-c1ncc(-c2ccc(Cl)cc2)o1 [3-(5-(4-chlorophenyl)oxazol-2-yl)-5-(1-cyclohexyl-1H-pyrazol-4-yl)pyridin-2-amine] | > 10 | > 10 | > 10
Nc1ncc(-c2cn[nH]c2)cc1-c1nc(-c2ccccc2)no1 [3-(3-phenyl-1,2,4-oxadiazol-5-yl)-5-(1H-pyrazol-4-yl)pyridin-2-amine] | 1 to 10 | 1 to 10 | 0.5 to 1
CC(C)(C)OC(=O)N1CCC(n2cc(-c3cnc(N)c(-c4nnc(-c5nccs5)o4)c3)cn2)CC1 [tert-butyl 4-(4-(6-amino-5-(5-(thiazol-2-yl)-1,3,4-oxadiazol-2-yl)pyridin-3-yl)-1H-pyrazol-1-yl)piperidine-1-carboxylate] | 1 to 10 | 1 to 10 | 0.5 to 1
Nc1ncc(-c2cnn(C3CCN(C(=O)C4CC4)CC3)c2)cc1-c1ncc(-c2ccc(Cl)cc2)o1 [(4-(4-(6-amino-5-(5-(4-chlorophenyl)oxazol-2-yl)pyridin-3-yl)-1H-pyrazol-1-yl)piperidin-1-yl)(cyclopropyl)methanone] | > 10 | < 0.5 | < 0.5
CN1CCC(n2cc(-c3cnc(N)c(-c4ncc(-c5ccc(Cl)cc5)o4)c3)cn2)CC1 [3-(5-(4-chlorophenyl)oxazol-2-yl)-5-(1-(1-methylpiperidin-4-yl)-1H-pyrazol-4-yl)pyridin-2-amine] | < 0.5 | < 0.5 | < 0.5
Nc1ncc(-c2cnn(C3CCNCC3)c2)cc1-c1nc(-c2ccccc2)no1 [3-(3-phenyl-1,2,4-oxadiazol-5-yl)-5-(1-(piperidin-4-yl)-1H-pyrazol-4-yl)pyridin-2-amine] | < 0.5 | < 0.5 | < 0.5
CC(C)(C)c1ccc(-c2nnc(-c3cc(-c4cn[nH]c4)cnc3N)o2)cc1 [3-(5-(4-(tert-butyl)phenyl)-1,3,4-oxadiazol-2-yl)-5-(1H-pyrazol-4-yl)pyridin-2-amine] | > 10 | > 10 | 1 to 10
Nc1ncc(-c2cnn(C3CCCCC3)c2)cc1-c1ncc(-c2cccc(Cl)c2)o1 [3-(5-(3-chlorophenyl)oxazol-2-yl)-5-(1-cyclohexyl-1H-pyrazol-4-yl)pyridin-2-amine] | 1 to 10 | 1 to 10 | 1 to 10
